Test results from patent US8633196B2, “Benzenesulfonamide compounds, method for synthesizing same, and use thereof in medicine as well as in cosmetics” (Galderma Research & Development, priority 2009, dated 2014).
Like-named read-outs stand apart in the source and are kept apart here. One block for each compound: values may come before it.

How the values were obtained:
[1] = target: T1, TACE enzyme (Homo sapiens (Human), UniProt P78536); settings: WO 00/44709; page 251, table 10, example 61; cited from earlier work
Target sequence in this assay (P78536 whole entry, looked up): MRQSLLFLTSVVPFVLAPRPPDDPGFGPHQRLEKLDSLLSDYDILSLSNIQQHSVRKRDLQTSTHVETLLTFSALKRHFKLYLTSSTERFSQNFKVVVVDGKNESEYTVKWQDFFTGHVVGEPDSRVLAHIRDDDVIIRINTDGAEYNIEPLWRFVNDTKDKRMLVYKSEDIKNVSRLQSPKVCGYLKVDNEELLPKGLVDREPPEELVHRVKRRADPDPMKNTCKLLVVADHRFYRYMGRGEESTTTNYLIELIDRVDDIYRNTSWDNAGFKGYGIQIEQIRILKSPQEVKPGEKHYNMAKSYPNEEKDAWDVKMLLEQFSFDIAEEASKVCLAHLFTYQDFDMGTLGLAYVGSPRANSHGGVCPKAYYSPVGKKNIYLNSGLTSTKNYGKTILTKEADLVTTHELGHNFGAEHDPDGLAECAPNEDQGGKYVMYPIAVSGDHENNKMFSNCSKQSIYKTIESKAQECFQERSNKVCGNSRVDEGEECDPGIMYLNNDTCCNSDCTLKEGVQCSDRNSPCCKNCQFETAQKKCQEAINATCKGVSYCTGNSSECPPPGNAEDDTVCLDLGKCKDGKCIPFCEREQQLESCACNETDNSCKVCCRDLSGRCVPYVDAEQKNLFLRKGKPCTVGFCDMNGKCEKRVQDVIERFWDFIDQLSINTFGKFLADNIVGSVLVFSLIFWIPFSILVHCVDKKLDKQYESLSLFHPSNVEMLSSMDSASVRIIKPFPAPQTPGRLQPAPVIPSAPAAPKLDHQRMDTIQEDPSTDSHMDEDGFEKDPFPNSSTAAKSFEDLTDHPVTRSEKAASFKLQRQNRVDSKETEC

[2] = target: ADAM10 (Homo sapiens (Human), UniProt O14672); experiment: Selectivity assay, ADAM10
[3] = target: T1, TACE enzyme; experiment: Enzymatic assay for TACE inhibition (fluorescent substrate); format: biochemical
Target sequence in this assay (P78536 215-824 limits assumed): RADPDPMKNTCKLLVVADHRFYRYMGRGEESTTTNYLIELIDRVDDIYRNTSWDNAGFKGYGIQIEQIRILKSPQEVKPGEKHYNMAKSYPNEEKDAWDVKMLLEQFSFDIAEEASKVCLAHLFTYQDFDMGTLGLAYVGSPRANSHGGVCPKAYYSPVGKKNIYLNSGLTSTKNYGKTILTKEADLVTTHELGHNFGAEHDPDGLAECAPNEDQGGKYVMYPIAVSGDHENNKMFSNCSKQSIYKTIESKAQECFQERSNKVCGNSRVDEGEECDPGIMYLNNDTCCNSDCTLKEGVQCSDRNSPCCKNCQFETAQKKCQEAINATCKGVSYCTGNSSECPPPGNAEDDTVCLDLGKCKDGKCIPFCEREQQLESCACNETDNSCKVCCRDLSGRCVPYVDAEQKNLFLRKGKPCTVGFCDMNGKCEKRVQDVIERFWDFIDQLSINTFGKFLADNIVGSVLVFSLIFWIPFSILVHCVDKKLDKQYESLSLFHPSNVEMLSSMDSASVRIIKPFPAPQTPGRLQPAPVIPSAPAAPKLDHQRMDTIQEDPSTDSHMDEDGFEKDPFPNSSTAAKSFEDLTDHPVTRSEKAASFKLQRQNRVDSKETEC

[4] = target: MMP3 (Homo sapiens (Human), UniProt P08254); experiment: Selectivity assay, MMP3; format: biochemical
[5] = target: ADAM9 (Homo sapiens (Human), UniProt Q13443); experiment: Selectivity assay, ADAM9; format: biochemical
[6] = target: MMP1 (Homo sapiens (Human), UniProt P03956); experiment: Selectivity assay, MMP1; format: biochemical
[7] = target: MMP9 (Homo sapiens (Human), UniProt P14780); experiment: Selectivity assay, MMP9; format: biochemical
[8] = enzymatic assay, substrate 40 μM, read-out: IC50-TACE
[9] = TACE column of selectivity table, read-out: IC50 (nM) TACE

Chain of ADAM10 (O14672 214-748, species assumed): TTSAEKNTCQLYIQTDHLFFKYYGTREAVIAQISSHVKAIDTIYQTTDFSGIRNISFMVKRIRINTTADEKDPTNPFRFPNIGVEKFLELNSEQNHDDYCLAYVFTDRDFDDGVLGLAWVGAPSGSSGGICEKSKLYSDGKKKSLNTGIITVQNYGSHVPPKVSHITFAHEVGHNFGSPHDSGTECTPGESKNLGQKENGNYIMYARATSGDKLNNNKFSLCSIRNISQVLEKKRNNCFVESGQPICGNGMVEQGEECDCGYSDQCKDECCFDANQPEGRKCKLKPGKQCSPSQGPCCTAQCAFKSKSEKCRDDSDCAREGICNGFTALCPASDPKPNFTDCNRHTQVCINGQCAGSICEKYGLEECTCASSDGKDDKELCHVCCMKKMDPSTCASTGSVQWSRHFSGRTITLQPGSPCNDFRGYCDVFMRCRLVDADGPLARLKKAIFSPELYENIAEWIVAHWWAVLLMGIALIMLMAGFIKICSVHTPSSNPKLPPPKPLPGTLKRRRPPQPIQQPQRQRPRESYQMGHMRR
Chain of MMP1 (P03956 100-469, species assumed): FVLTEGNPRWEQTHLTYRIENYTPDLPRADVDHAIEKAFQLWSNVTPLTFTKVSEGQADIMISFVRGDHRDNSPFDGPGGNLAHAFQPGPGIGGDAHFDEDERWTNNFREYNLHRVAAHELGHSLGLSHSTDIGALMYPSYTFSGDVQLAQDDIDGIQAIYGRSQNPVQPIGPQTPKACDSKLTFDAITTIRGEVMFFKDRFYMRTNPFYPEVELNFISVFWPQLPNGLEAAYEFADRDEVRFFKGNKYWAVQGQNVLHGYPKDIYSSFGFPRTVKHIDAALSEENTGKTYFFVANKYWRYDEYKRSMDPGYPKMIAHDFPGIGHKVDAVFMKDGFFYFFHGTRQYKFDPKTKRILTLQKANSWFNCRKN
Chain of MMP9 (P14780 94-707, species assumed): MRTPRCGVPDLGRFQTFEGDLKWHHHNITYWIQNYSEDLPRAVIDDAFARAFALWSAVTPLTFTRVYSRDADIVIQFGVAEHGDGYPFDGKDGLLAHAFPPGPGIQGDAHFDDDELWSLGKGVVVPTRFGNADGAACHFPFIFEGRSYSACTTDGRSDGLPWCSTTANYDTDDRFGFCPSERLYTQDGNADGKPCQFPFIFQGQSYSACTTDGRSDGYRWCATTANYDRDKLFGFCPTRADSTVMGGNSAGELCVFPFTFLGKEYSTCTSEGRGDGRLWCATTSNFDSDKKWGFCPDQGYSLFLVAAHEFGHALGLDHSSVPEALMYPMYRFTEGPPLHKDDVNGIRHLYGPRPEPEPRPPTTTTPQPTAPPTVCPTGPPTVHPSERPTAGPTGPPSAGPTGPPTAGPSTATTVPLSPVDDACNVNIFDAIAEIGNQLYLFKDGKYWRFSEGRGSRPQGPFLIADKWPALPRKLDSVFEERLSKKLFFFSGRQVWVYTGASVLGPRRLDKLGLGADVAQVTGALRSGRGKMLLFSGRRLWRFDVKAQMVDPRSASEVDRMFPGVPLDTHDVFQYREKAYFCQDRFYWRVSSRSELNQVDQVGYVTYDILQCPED
Chain of ADAM9 (Q13443 29-819, species assumed): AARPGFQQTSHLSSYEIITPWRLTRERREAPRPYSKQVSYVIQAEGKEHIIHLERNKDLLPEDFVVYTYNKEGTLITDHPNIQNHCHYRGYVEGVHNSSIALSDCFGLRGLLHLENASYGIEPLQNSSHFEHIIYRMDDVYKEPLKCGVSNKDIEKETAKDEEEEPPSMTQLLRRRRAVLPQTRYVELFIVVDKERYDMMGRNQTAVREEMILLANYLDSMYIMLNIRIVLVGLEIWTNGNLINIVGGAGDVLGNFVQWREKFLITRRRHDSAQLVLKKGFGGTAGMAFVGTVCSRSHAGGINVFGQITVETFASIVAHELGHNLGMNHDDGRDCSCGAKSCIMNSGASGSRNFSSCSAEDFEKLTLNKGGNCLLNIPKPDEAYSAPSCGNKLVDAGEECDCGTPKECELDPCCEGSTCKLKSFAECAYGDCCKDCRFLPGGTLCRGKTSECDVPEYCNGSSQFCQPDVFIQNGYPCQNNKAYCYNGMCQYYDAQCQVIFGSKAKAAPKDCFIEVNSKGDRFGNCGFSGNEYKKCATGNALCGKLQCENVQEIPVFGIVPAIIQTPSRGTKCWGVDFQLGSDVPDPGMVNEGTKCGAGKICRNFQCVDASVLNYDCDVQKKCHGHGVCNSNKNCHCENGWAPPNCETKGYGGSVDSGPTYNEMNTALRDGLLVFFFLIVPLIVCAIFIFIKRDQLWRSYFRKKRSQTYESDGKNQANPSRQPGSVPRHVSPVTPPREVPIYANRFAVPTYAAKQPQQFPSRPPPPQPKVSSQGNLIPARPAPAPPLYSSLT
Chain of MMP3 (P08254 100-477, species assumed): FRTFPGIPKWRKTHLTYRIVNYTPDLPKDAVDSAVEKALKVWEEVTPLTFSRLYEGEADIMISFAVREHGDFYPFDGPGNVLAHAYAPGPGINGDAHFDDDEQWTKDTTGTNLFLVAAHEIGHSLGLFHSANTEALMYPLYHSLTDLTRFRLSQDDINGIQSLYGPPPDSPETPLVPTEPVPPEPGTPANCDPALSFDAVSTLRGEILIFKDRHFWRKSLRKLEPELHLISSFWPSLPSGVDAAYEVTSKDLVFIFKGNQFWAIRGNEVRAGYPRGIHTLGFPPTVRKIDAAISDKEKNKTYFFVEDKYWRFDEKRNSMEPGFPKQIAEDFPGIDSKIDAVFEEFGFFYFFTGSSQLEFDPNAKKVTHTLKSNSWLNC

Structure (SMILES): CC1(C)SCCN(S(=O)(=O)c2ccc(OCC#CCO)cc2)[C@H]1C(=O)NO [Apratastat, reference compound]
selectivity for the TACE enzyme compared with certain MMPs [1]: not selective
IC50 [2]: 71 nM
IC50 ([3]; read-out: IC50 (nM) TACE, TACE column of selectivity table): 5 nM
IC50 [4]: 10 nM
IC50 [5]: 85 nM
IC50 [6]: 145 nM
IC50 [7]: 82 nM

Structure (SMILES): Cc1cc(COc2ccc(S(=O)(=O)NC[C@@H](C(=O)NO)N3CCN(S(C)(=O)=O)CC3)cc2)c2ccccc2n1 [Example 5, (S)-N-Hydroxy-2-(4-methanesulfonylpiperazin-1-yl)-3-[4-(2-methylquinolin-4-ylmethoxy)benzenesulfonylamino]propionamide]
IC50 [3, 9]: 21 nM
% TACE inhibition at 10 μM [3]: 99%
IC50 [3, 8]: 21 nM
IC50 [4]: 3200 nM
IC50 [6]: 5100 nM

Structure (SMILES): CS(=O)(=O)N1CCN([C@@H](CNS(=O)(=O)c2ccc(OCc3cccc4ccccc34)cc2)C(=O)NO)CC1 [Example 6, (S)-N-Hydroxy-2-(4-methanesulfonylpiperazin-1-yl)-3-[4-(naphthalen-1-ylmethoxy)benzenesulfonylamino]propionamide]
% TACE inhibition at 10 μM [3]: 99%
IC50 [3, 8]: 52 nM

Structure (SMILES): CS(=O)(=O)N1CCN([C@@H](CNS(=O)(=O)c2ccc(OCc3ccnc(-c4ccccc4)c3)cc2)C(=O)NO)CC1 [Example 11, (S)-N-Hydroxy-2-(4-methanesulfonylpiperazin-1-yl)-3-[4-(2-phenylpyridin-4-ylmethoxy)benzenesulfonylamino]propionamide]
% TACE inhibition at 10 μM [3]: 93%
IC50 [3, 8]: 24 nM

Structure (SMILES): Cc1cc(COc2ccc(S(=O)(=O)NC[C@@H](C(=O)NO)N3CCN(S(C)(=O)=O)CC3)cc2)c2ccccc2n1.Cl [Example 14, (S)-N-Hydroxy-2-(4-methanesulfonylpiperazin-1-yl)-3-[4-(2-methylquinolin-4-ylmethoxy)benzenesulfonylamino]propionamide hydrochloride]
% TACE inhibition at 10 μM [3]: 98%
IC50 ([3]; read-out: IC50-TACE, enzymatic assay, substrate 40 μM, listed as ex14, hydrochloride): 64 nM

Structure (SMILES): Cc1cc(COc2ccc(S(=O)(=O)NC[C@@H](C(=O)NO)N3CCN(Cc4ccccc4)CC3)cc2)c2ccccc2n1 [Example 17, (S)-2-(4-Benzylpiperazin-1-yl)-N-hydroxy-3-[4-(2-methylquinolin-4-ylmethoxy)benzenesulfonylamino]propionamide]
% TACE inhibition at 10 μM [3]: 91%
IC50 [3, 8]: 62 nM

Structure (SMILES): Cc1cc(COc2ccc(S(=O)(=O)NC[C@@H](C(=O)NO)N3CCN(Cc4ccc(F)cc4)CC3)cc2)c2ccccc2n1 [Example 18, (S)-2-[4-(4-Fluorobenzyl)piperazin-1-yl]-N-hydroxy-3-[4-(2-methylquinolin-4-ylmethoxy)benzenesulfonylamino]propionamide]
IC50 [2]: > 10000 nM
IC50 [3, 9]: 67 nM
% TACE inhibition at 10 μM [3]: 90%
IC50 [3, 8]: 67 nM
IC50 [4]: 849 nM
IC50 [5]: 9250 nM
IC50 [6]: 670 nM
IC50 [7]: > 10000 nM

Structure (SMILES): Cc1cc(COc2ccc(S(=O)(=O)NC[C@@H](C(=O)NO)N3CCN(S(=O)(=O)CC(C)C)CC3)cc2)c2ccccc2n1 [Example 24, (S)-N-hydroxy-2-[4-(2-methylpropane-1-sulfonyl)piperazin-1-yl]-3-[4-(2-methylquinolin-4-ylmethoxy)benzenesulfonylamino]propionamide]
IC50 [4]: 1880 nM
IC50 [6]: 2060 nM

Further lines, results first:

% TACE inhibition at 10 μM [3]: 100%
IC50 [3, 8]: 32 nM
Structure (SMILES): CC#CCOc1ccc(S(=O)(=O)NC[C@@H](C(=O)NO)N2CCN(S(C)(=O)=O)CC2)cc1 [Example 2, (S)-3-(4-but-2-ynyloxybenzenesulfonylamino)-N-hydroxy-2-(4-methanesulfonylpiperazin-1-yl)propionamide]

% TACE inhibition at 10 μM [3]: 100%
IC50 [3, 8]: 127 nM
Structure (SMILES): CS(=O)(=O)N1CCN([C@@H](CNS(=O)(=O)c2ccc(OCc3cccc(C#N)c3)cc2)C(=O)NO)CC1 [Example 8, (S)-3-[4-(3-Cyanobenzyloxy)benzenesulfonylamino]-N-hydroxy-2-(4-methanesulfonylpiperazin-1-yl)propionamide]

% TACE inhibition at 10 μM [3]: 100%
IC50 [3, 8]: 147 nM
Structure (SMILES): CS(=O)(=O)N1CCN([C@@H](CNS(=O)(=O)c2ccc(OCc3ccc(C#N)cc3)cc2)C(=O)NO)CC1 [Example 9, (S)-3-[4-(4-Cyanobenzyloxy)benzenesulfonylamino]-N-hydroxy-2-(4-methanesulfonylpiperazin-1-yl)propionamide]

% TACE inhibition at 10 μM [3]: 93%
Structure (SMILES): Cc1cc(COc2ccc(S(=O)(=O)NC[C@@H](C(=O)NO)N3CCN(C(=O)OCc4ccccc4)CC3)cc2)c2ccccc2n1 [Example 10, Benzyl 4-{(S)-1-hydroxycarbamoyl-2-[4-(2-methylquinolin-4-ylmethoxy)benzenesulfonylamino]ethyl}piperazine-1-carboxylate]

% TACE inhibition at 10 μM [3]: 96%
IC50 [3, 8]: 108 nM
Structure (SMILES): Cc1cc(COc2ccc(S(=O)(=O)NC[C@@H](C(=O)NO)N3CCNCC3)cc2)c2ccccc2n1 [Example 13, (S)-N-Hydroxy-3-[4-(2-methylquinolin-4-ylmethoxy)benzenesulfonylamino]-2-piperazin-1-ylpropionamide]

% TACE inhibition at 10 μM [3]: 96%
IC50 [3, 8]: 168 nM
Structure (SMILES): CS(=O)(=O)N1CCN([C@@H](CNS(=O)(=O)c2ccc(OCc3ccnc4ccccc34)cc2)C(=O)NO)CC1 [Example 16, (S)-N-Hydroxy-2-(4-methanesulfonylpiperazin-1-yl)-3-[4-(quinolin-4-ylmethoxy)benzenesulfonylamino]propionamide]

IC50 [2]: > 10000 nM
IC50 [3, 9]: 41 nM
% TACE inhibition at 10 μM [3]: 92%
IC50 [3, 8]: 41 nM
IC50 [4]: 1770 nM
IC50 [5]: 3050 nM
IC50 [6]: 2300 nM
IC50 [7]: > 10000 nM
Structure (SMILES): CCN1CCN([C@@H](CNS(=O)(=O)c2ccc(OCc3cc(C)nc4ccccc34)cc2)C(=O)NO)CC1 [Example 19, (S)-2-(4-ethyl-piperazin-1-yl)-N-hydroxy-3-[4-(2-methylquinolin-4-yl-methoxy)benzenesulfonylamino]propionamide]

IC50 [2]: > 10000 nM
IC50 [4]: 4780 nM
IC50 [5]: > 10000 nM
IC50 [6]: 3940 nM
IC50 [7]: > 10000 nM
Structure (SMILES): Cc1cc(COc2ccc(S(=O)(=O)NC[C@@H](C(=O)NO)N3CCN(Cc4ccc(C(F)(F)F)cc4)CC3)cc2)c2ccccc2n1 [Example 20, (S)-N-Hydroxy-3-[4-(2-methylquinolin-4-ylmethoxy)benzenesulfonylamino]-2-[4-(4-trifluoromethylbenzyl)piperazin-1-yl]propionamide]

IC50 [3, 9]: 63 nM
% TACE inhibition at 10 μM [3]: 97%
IC50 [3, 8]: 63 nM
IC50 [4]: 887 nM
IC50 [6]: 1170 nM
Structure (SMILES): Cc1ccc(CN2CCN([C@@H](CNS(=O)(=O)c3ccc(OCc4cc(C)nc5ccccc45)cc3)C(=O)NO)CC2)cc1 [Example 21, (S)-N-hydroxy-2-[4-(4-methylbenzyl)piperazin-1-yl]-3-[4-(2-methylquinolin-4-ylmethoxy)benzenesulfonylamino]propionamide]

IC50 [3, 9]: 53 nM
% TACE inhibition at 10 μM [3]: 97%
IC50 [3, 8]: 53 nM
IC50 [4]: 1060 nM
IC50 [6]: 2220 nM
Structure (SMILES): Cc1cc(COc2ccc(S(=O)(=O)NC[C@@H](C(=O)NO)N3CCN(C(=O)C(C)C)CC3)cc2)c2ccccc2n1 [Example 23, (S)-N-hydroxy-2-(4-isobutyrylpiperazin-1-yl)-3-[4-(2-methylquinolin-4-ylmethoxy)-benzenesulfonylamino]propionamide]

IC50 [3, 9]: 16 nM
% TACE inhibition at 10 μM [3]: 98%
IC50 [3, 8]: 33 nM
IC50 [4]: 574 nM
IC50 [6]: 969 nM
Structure (SMILES): Cc1cc(COc2ccc(S(=O)(=O)NC[C@@H](C(=O)NO)N3CCN(S(=O)(=O)C(C)C)CC3)cc2)c2ccccc2n1 [Example 26, (S)-N-hydroxy-3-[4-(2-methylquinolin-4-ylmethoxy)benzenesulfonylamino]-2-[4-(propane-2-sulfonyl)piperazin-1-yl]propionamide]
